Source: patent publication US20080113347A1, “Method for the in Vitro Diagnosis and Prognosis of Demyelinating Diseases, and for the Development of Drugs Against Demyelinating Diseases” (priority 2003, published 2008)
Values joined by “and” are separate entries in the source; they are usually repeats but may differ in a detail not shown here. Identical values can stand only once.

System: dusp6 gene expression
Experiment: Real time quantitative RT-PCR of dusp6 expression in primary oligodendrocyte cultures
Format: cell-based, rat
Conditions: for Experimental dusp6 crossing points (Cp), single replicas: replicas 1 and 2; for Dusp6 overexpression values (Fold Change) with regard to the untreated control, Ratio: standardized to GAPDH
Protocol: The method used consists of reverse transcription of mRNA to cDNA and its subsequent amplification into a LightCycler equipment (Roche), using SYBR Green for the detection of the amplified product. Real time quantification is carried out, and it allows calculating the relative expression of the sequence in different samples in the linear amplification phase of the reaction.
Samples: Primary oligodendrocyte culture samples treated with AMPA were analyzed. The samples came from cultures different from those analyzed with DNA microarrays. 4 cultures were carried out:
control: untreated cultured oligodendrocytes
ampa 2: oligodendrocytes treated for 2 minutes with 10 μM AMPA and collected after treatment
ampa 10: oligodendrocytes treated for 10 minutes with 10 μM AMPA collected after treatment
ampa 15: oligodendrocytes treated for 15 minutes with 10 μM AMPA and collected 60 minutes later.
Real time quantitative RT-PCR. The total RNA of each one of the cultures was obtained by homogenizing the cells in TRIzol® Reagent (Life Technologies) following the supplier's recommendations. The resulting total RNA was cleaned with the RNeasy kit (QIAGEN) (Chomczynski P. et al., Anal. Biochem., 1987, 162: 156; Chomczynski P., Biotechniques, 1993, 15: 532). The total RNA samples were conserved at −80° C. from the moment they were obtained until they were used. The RNA was spectrophotometrically quantified and 5 μg of total RNA were digested with DNase (2 U/μl) of Ambion at a concentration of 2 U per μg of RNA, for 30 minutes at 37° C.
1 μg of RNA treated with DNAse as a starting material was used for the synthesis of the first cDNA strand with the reverse transcriptase enzyme SuperScript™ II RNase (Life Technologies), using an oligo-dT oligonucleotide as a primer which contained the sequence of the promoter of the phage T7 RNA polymerase. Aliquots of cDNA diluted to the working concentration were used.
Synthesized cDNA was amplified using specific primers of the rat dusp6 gene (SEQ ID NO: 1 and SEQ ID NO: 2), and of the gene encoding the rat protein glyceraldehyde 3-phosphate dehydrogenase, Genebank accession number NM_017008 (SEQ ID NO:21 and SEQ ID NO:22). Real time PCR reactions were prepared using the LightCycler-FastStart DNA master SYBR Green I kit (Roche) following the manufacturer's instructions. The amplification program consisted of […] for 10 min (“hot start”) followed by 45 95° C. cycles (denaturation) for 10 seconds, 60° C. (annealing) for 5 seconds, 72° C. (amplification and fluorescence acquisition) for 10 seconds. The melting curve analysis program consisted of a one-pulse cycle of 95° C., 65° C. for 15 seconds, and a 95° C. pulse during the amplification and acquisition step.
First, specificity of the PCR products was determined by analyzing the melting curves. Subsequently, as a relative measurement of gene expression, the ratio between the abundance of dusp6 transcribed mRNAs and the abundance of GAPDH transcribed mRNAS was calculated, and the data of the ratio was standardized in each one of the treated samples on the basis of control sample values. To calculate efficiency of the PCR reactions (dusp6 and GAPDH), a standard curve was constructed for each gene sequence carried out with cDNA serial dilutions. The template cDNA concentrations for the reactions on the standard curve were arbitrarily given the values 2×, 0.5×, 0.2× and 0.02×. The crossing point values for each one of the reactions were used to construct the standard curve: y=m×+b, where m is the slope and b is the intersection point of the line on the axis of ordinates. Starting RNA concentration values in each sample were obtained from the data of the line using the following formula: […]
The change rate at each point was obtained by dividing the concentration values standardized in comparison to the concentration values in the control.

[1] = 10 μM AMPA 2 minutes, collected after treatment
[2] = 10 μM AMPA 10 minutes, collected after treatment
[3] = 10 μM AMPA 15 minutes, collected 60 minutes later

Cc1onc(O)c1CC(N)C(=O)O (stereo not drawn) [AMPA, α-amino-3-hydroxy-5-methyl-4-isoxazolepropionic acid]
Experimental dusp6 crossing points (Cp), Mean [1]: 30.5 | Experimental dusp6 crossing points (Cp), single replicas [1]: 30.46 and 30.54 | Dusp6 overexpression values (Fold Change) with regard to the untreated control, Ratio [1]: 1.7 fold | Experimental dusp6 crossing points (Cp), Mean [2]: 32.23 | Experimental dusp6 crossing points (Cp), single replicas [2]: 32.15 and 32.31 | Dusp6 overexpression values (Fold Change) with regard to the untreated control, Ratio [2]: 0.9 fold | Experimental dusp6 crossing points (Cp), Mean [3]: 29.67 | Experimental dusp6 crossing points (Cp), single replicas [3]: 29.73 and 29.61 | Dusp6 overexpression values (Fold Change) with regard to the untreated control, Ratio [3]: 2.7 fold
